Where a SMILES comes first, the peptide text is derived from it. [ ]: non-standard residue; d: D form. Trp(5-Br) = N[C@@H](Cc1c[nH]c2ccc(Br)cc12)C(=O)O
organism: Homo sapiens; experiment: Inhibitory activity against aggregation of deoxy-HbS using CSAT assay; assay type: functional

Q: How did the Slope turn out when `N[C@@H](Cc1c[nH]c2ccccc12)C(=O)N[C@@H](Cc1c[nH]c2ccccc12)C(=O)O` (H-Trp-Trp-OH) was run?
A: The Slope was 235 g dl-1M-1.

Q: How did the Slope turn out when `N[C@@H](Cc1c[nH]c2ccccc12)C(=O)N[C@@H](Cc1c[nH]c2ccc(Br)cc12)C(=O)O` (H-Trp-[Trp(5-Br)]-OH) was run?
A: The Slope was 240 g dl-1M-1.

Q: How did the Slope turn out when `N[C@@H](Cc1c[nH]c2ccc(Br)cc12)C(=O)N[C@@H](Cc1c[nH]c2ccc(Br)cc12)C(=O)O` (H-[Trp(5-Br)]-[Trp(5-Br)]-OH) was run?
A: The Slope was 726 g dl-1M-1.

Q: `N[C@@H](Cc1c[nH]c2ccc(Br)cc12)C(=O)N[C@@H](Cc1c[nH]c2ccccc12)C(=O)O` (H-[Trp(5-Br)]-Trp-OH) was tested. Which Slope did it give?
A: Its Slope is 334 g dl-1M-1.

Q: `N[C@@H](Cc1c[nH]c2ccccc12)C(=O)O` was tested. Which Slope did it give?
A: Its Slope is 124 g dl-1M-1.

Q: `N[C@@H](Cc1c[nH]c2ccc(Br)cc12)C(=O)O` was tested. Which Slope did it give?
A: Its Slope is 356 g dl-1M-1.
